According to ChEMBL document CHEMBL4011594, “Discovery and optimization of 2-pyridinone aminal integrase strand transfer inhibitors for the treatment of HIV” (Bioorg Med Chem Lett, 2017):
Converted amounts (≈) assume the structure as drawn.

Key:
[1] = Aqueous solubility of the compound at pH 7; format: physicochemical
[2] = system: Human immunodeficiency virus 1; assay: Inhibition of HIV-1 integrase strand transfer activity assessed as reduction in viral replication in presence of 50% normal human serum
[3] = system: Human immunodeficiency virus 1; assay: Inhibition of wild-type HIV-1 integrase strand transfer activity assessed as reduction in viral replication in presence of 10% normal human serum
[4] = Aqueous solubility of the compound at pH 2; format: physicochemical
[5] = system: Human immunodeficiency virus type 1 integrase (Human immunodeficiency virus 1), Q7ZJM1 [Y143R]; assay: Inhibition of HIV-1 integrase Y143R mutant strand transfer activity assessed as reduction in viral replication
[6] = system: Human immunodeficiency virus type 1 integrase (Human immunodeficiency virus 1), Q7ZJM1 [Q148K]; assay: Inhibition of HIV-1 integrase Q148K mutant strand transfer activity assessed as reduction in viral replication
[7] = Oral bioavailability in Beagle dog at 1 mg/kg; format: ADME, organism-based, Canis lupus familiaris; details: in vivo
[8] = Half life in Beagle dog at 0.5 mg/kg, iv or 1 mg/kg, po; format: ADME, organism-based, Canis lupus familiaris; details: in vivo
[9] = system: Human immunodeficiency virus type 1 integrase (Human immunodeficiency virus 1), Q7ZJM1 [G140S,Q148H]; assay: Inhibition of HIV-1 integrase G140S/Q148H double mutant strand transfer activity assessed as reduction in viral replication
[10] = system: Human immunodeficiency virus type 1 integrase (Human immunodeficiency virus 1), Q7ZJM1 [Q148R]; assay: Inhibition of HIV-1 integrase Q148R mutant strand transfer activity assessed as reduction in viral replication
[11] = Plasma protein binding in Beagle dog; format: ADME, cell-free, Canis lupus familiaris; details: read-out: PPB (converted)
[12] = system: Human immunodeficiency virus type 1 integrase (Human immunodeficiency virus 1), Q7ZJM1 [E92Q]; assay: Inhibition of HIV-1 integrase E92Q mutant strand transfer activity assessed as reduction in viral replication
[13] = system: Human immunodeficiency virus type 1 integrase (Human immunodeficiency virus 1), Q7ZJM1 [N155H]; assay: Inhibition of HIV-1 integrase N155H mutant strand transfer activity assessed as reduction viral replication
[14] = Clearance in Beagle dog at 0.5 mg/kg, iv or 1 mg/kg, po; format: ADME, organism-based, Canis lupus familiaris; details: in vivo
[15] = Volume of distribution in Beagle dog at 0.5 mg/kg, iv or 1 mg/kg, po; format: ADME, organism-based, Canis lupus familiaris; details: in vivo

SMILES	solubility [1] [µM]	IP [2] [nM]	IP [3] [nM]	solubility [4] [µM]	further results
Cc1ccc2c(c1)CCC21NC(=O)c2c3c(c(O)c(=O)n21)C(=O)N(Cc1ccc(F)c(Cl)c1)CC3 (racemic)	< 3	240	59	< 3	–
Cc1cccc2c1C1(CC2)NC(=O)c2c3c(c(O)c(=O)n21)C(=O)N(Cc1ccc(F)c(Cl)c1)CC3 (racemic)	< 2	140	37	< 2	–
Cc1ccc2c(c1)C1(CC2)NC(=O)c2c3c(c(O)c(=O)n21)C(=O)N(Cc1ccc(F)c(Cl)c1)CC3 (racemic)	< 2	230	45	< 2	–
C[C@H](O)CN1C(=O)c2c3c(c(O)c(=O)n2[C@@]12CC[C@H]1C[C@H]12)C(=O)N(Cc1ccc(F)c(Cl)c1)CC3	98 (≈ 49.2 µg/mL)	44	8	125 (≈ 62.7 µg/mL)	IP [5]: 11 nM; IP [6]: 10 nM; bioavailability [7]: 42%; half-life [8]: 6 h; IP [9]: 27 nM; IP [10]: 10 nM; fraction unbound [11]: 0.025; IP [12]: 10 nM; IP [13]: 11 nM; clearance [14]: 2.9 mL/min/kg; Vd [15]: 0.5 L/kg
O=C1NC2(CCCC2)n2c1c1c(c(O)c2=O)C(=O)N(Cc2ccc(F)c(Cl)c2)CC1	10 (≈ 4.32 µg/mL)	1600	100	< 5	–
COc1ccnc2c1C1(CC2)NC(=O)c2c3c(c(O)c(=O)n21)C(=O)N(Cc1ccc(F)c(Cl)c1)CC3 (racemic)	63 (≈ 32.2 µg/mL)	74	13	190 (≈ 97.1 µg/mL)	–
Cc1cccc2c1CCC21NC(=O)c2c3c(c(O)c(=O)n21)C(=O)N(Cc1ccc(F)c(Cl)c1)CC3 (racemic)	< 2	540	140	< 2	–
CC1CCC2(C1)NC(=O)c1c3c(c(O)c(=O)n12)C(=O)N(Cc1ccc(F)c(Cl)c1)CC3 (racemic)	< 5	700	110	< 5	–
O=C1c2c(c3n(c(=O)c2O)[C@@H](C2CC2)N(C2CC2)C3=O)CCN1Cc1ccc(F)c(Cl)c1	34 (≈ 15.6 µg/mL)	1730	95	40 (≈ 18.3 µg/mL)	IP [5]: 142 nM; IP [6]: 820 nM; bioavailability [7]: 44%; half-life [8]: 7.5 h; IP [9]: 1540 nM; IP [10]: 1010 nM; fraction unbound [11]: 0.024; IP [12]: 123 nM; IP [13]: 271 nM; clearance [14]: 1.4 mL/min/kg; Vd [15]: 0.7 L/kg
O=C1NC(C2CCCC2)n2c1c1c(c(O)c2=O)C(=O)N(Cc2ccc(F)c(Cl)c2)CC1 (racemic)	< 5	> 1000	> 10000	116 (≈ 51.7 µg/mL)	–
O=C1NC2(CCc3ccccc32)n2c1c1c(c(O)c2=O)C(=O)N(Cc2ccc(F)c(Cl)c2)CC1 (racemic)	< 2	190	27	< 2	–
COc1nccc2c1C1(CC2)NC(=O)c2c3c(c(O)c(=O)n21)C(=O)N(Cc1ccc(F)c(Cl)c1)CC3 (racemic)	–	1940	493	–	–
O=C1c2c(c3n(c(=O)c2O)C2(CCC4CC42)N(CCN2C(=O)CCC2=O)C3=O)CCN1Cc1ccc(F)c(Cl)c1 (configuration not stated)	48 (≈ 27.3 µg/mL)	46	7	89 (≈ 50.6 µg/mL)	IP [5]: 11 nM; IP [6]: 7 nM; bioavailability [7]: 4.5 to 5%; half-life [8]: 6.6 h; IP [9]: 23 nM; IP [10]: 7 nM; fraction unbound [11]: 0.058; IP [12]: 7 nM; IP [13]: 8 nM; clearance [14]: 7.3 mL/min/kg; Vd [15]: 2.1 L/kg
COc1cccc2c1[C@]1(CC2)NC(=O)c2c3c(c(O)c(=O)n21)C(=O)N(Cc1ccc(F)c(Cl)c1)CC3	5 (≈ 2.55 µg/mL)	22	4	< 2	–
O=C1NC2(Cc3ccccc3C2)n2c1c1c(c(O)c2=O)C(=O)N(Cc2ccc(F)c(Cl)c2)CC1	< 3	1800	620	< 3	–
O=C1NC(C2CCC2)n2c1c1c(c(O)c2=O)C(=O)N(Cc2ccc(F)c(Cl)c2)CC1 (racemic)	31 (≈ 13.4 µg/mL)	> 10000	8340	40 (≈ 17.3 µg/mL)	–
N#Cc1cccc2c1[C@@]1(CC2)NC(=O)c2c3c(c(O)c(=O)n21)C(=O)N(Cc1ccc(F)c(Cl)c1)CC3	17 (≈ 8.58 µg/mL)	4110	1300	10 (≈ 5.05 µg/mL)	–
O=C1N[C@]2(CC[C@H]3C[C@H]32)n2c1c1c(c(O)c2=O)C(=O)N(Cc2ccc(F)c(Cl)c2)CC1	31 (≈ 13.8 µg/mL)	206	30	30 to 50 (≈ 13.3 to 22.2 µg/mL)	IP [5]: 28 nM; IP [6]: 450 nM; bioavailability [7]: 15%; half-life [8]: 13 h; IP [9]: 491 nM; IP [10]: 107 nM; IP [12]: 210 nM; IP [13]: 84 nM; clearance [14]: 0.12 mL/min/kg; Vd [15]: 0.1 L/kg

Now from value to compound, other results behind:

solubility [1] [µM]	IP [2] [nM]	IP [3] [nM]	solubility [4] [µM]	SMILES	further results
14 (≈ 7.59 µg/mL)	240	31	44 (≈ 23.8 µg/mL)	O=C1c2c(c3n(c(=O)c2O)C2(CCC4CC42)N(CC2CCOCC2)C3=O)CCN1Cc1ccc(F)c(Cl)c1 (racemic)	–
< 2	890	80	< 2	O=C1c2c(c3n(c(=O)c2O)C2(CCC4CC42)N(CCN2C(=O)c4ccccc4C2=O)C3=O)CCN1Cc1ccc(F)c(Cl)c1 (configuration not stated)	–
17 (≈ 9.84 µg/mL)	150	19	33 (≈ 19.1 µg/mL)	CN(CCN1C(=O)c2c3c(c(O)c(=O)n2C12CCC1CC12)C(=O)N(Cc1ccc(F)c(Cl)c1)CC3)S(C)(=O)=O (configuration not stated)	–
56 (≈ 32.7 µg/mL)	42	8	136 (≈ 79.4 µg/mL)	CN1CC(=O)N(CCN2C(=O)c3c4c(c(O)c(=O)n3C23CCC2CC23)C(=O)N(Cc2ccc(F)c(Cl)c2)CC4)C1=O (configuration not stated)	–
107 (≈ 52.2 µg/mL)	274	48	138 (≈ 67.3 µg/mL)	O=C1c2c(c3n(c(=O)c2O)C2(CCC4CC42)N(CCO)C3=O)CCN1Cc1ccc(F)c(Cl)c1 (configuration not stated)	–
54 (≈ 27.9 µg/mL)	120	15	69 (≈ 35.6 µg/mL)	CCC(O)CN1C(=O)c2c3c(c(O)c(=O)n2C12CCC1CC12)C(=O)N(Cc1ccc(F)c(Cl)c1)CC3 (configuration not stated)	–
< 5	4800	1100	< 5	CN1C(=O)c2c3c(c(O)c(=O)n2C12CCCCCC2)C(=O)N(Cc1ccc(F)c(Cl)c1)CC3	–
32 (≈ 14.2 µg/mL)	88	16	49 (≈ 21.7 µg/mL)	O=C1N[C@@]2(CC[C@@H]3C[C@@H]32)n2c1c1c(c(O)c2=O)C(=O)N(Cc2ccc(F)c(Cl)c2)CC1	–
26 (≈ 13.4 µg/mL)	180	25	46 (≈ 23.7 µg/mL)	CO[C@H](C)CN1C(=O)c2c3c(c(O)c(=O)n2C12CCC1CC12)C(=O)N(Cc1ccc(F)c(Cl)c1)CC3 (some centres not stated)	–
63 (≈ 31.6 µg/mL)	33	7	190 (≈ 95.4 µg/mL)	C[C@@H](O)CN1C(=O)c2c3c(c(O)c(=O)n2[C@@]12CC[C@H]1C[C@H]12)C(=O)N(Cc1ccc(F)c(Cl)c1)CC3	–
123 (≈ 65.4 µg/mL)	130	16	157 (≈ 83.5 µg/mL)	COCC(O)CN1C(=O)c2c3c(c(O)c(=O)n2C12CCC1CC12)C(=O)N(Cc1ccc(F)c(Cl)c1)CC3 (configuration not stated)	–
< 6	410	45	< 6	COC(C)(C)CCN1C(=O)c2c3c(c(O)c(=O)n2C12CCC1CC12)C(=O)N(Cc1ccc(F)c(Cl)c1)CC3 (configuration not stated)	–
23 (≈ 11.9 µg/mL)	210	28	12 (≈ 6.19 µg/mL)	CO[C@@H](C)CN1C(=O)c2c3c(c(O)c(=O)n2C12CCC1CC12)C(=O)N(Cc1ccc(F)c(Cl)c1)CC3 (some centres not stated)	–
< 5	900	210	< 5	CN1C(=O)c2c3c(c(O)c(=O)n2C12CCC2)C(=O)N(Cc1ccc(F)c(Cl)c1)CC3	–
< 4	170	17	11 (≈ 6.5 µg/mL)	O=C1c2c(c3n(c(=O)c2O)C2(CCC4CC42)N(CCN2CCCS2(=O)=O)C3=O)CCN1Cc1ccc(F)c(Cl)c1 (configuration not stated)	–
–	130	40	–	O=C1CC[C@@H](CN2C(=O)c3c4c(c(O)c(=O)n3C23CCC2CC23)C(=O)N(Cc2ccc(F)c(Cl)c2)CC4)N1 (some centres not stated)	–
12 (≈ 7.27 µg/mL)	65	13	18 (≈ 10.9 µg/mL)	CN1CCN(CCN2C(=O)c3c4c(c(O)c(=O)n3C23CCC2CC23)C(=O)N(Cc2ccc(F)c(Cl)c2)CC4)S1(=O)=O (configuration not stated)	–
59 (≈ 29.6 µg/mL)	197	33	54 (≈ 27.1 µg/mL)	COCCN1C(=O)c2c3c(c(O)c(=O)n2C12CCC1CC12)C(=O)N(Cc1ccc(F)c(Cl)c1)CC3 (configuration not stated)	–
67 (≈ 38.3 µg/mL)	120	18	151 (≈ 86.2 µg/mL)	O=C(CN1C(=O)c2c3c(c(O)c(=O)n2C12CCC1CC12)C(=O)N(Cc1ccc(F)c(Cl)c1)CC3)N1CCOCC1 (configuration not stated)	–
